# Columns and labels:
# Hep G2 cells [1] = experiment: In vitro toxicity (CellTiter-Glo cell viability), Hep G2; type: cell-based;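 further: percent of untreated cells luminescence signal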
# Method in brief: (§1)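 Cells were transfected with RNA-LNPs at 1 μg/mL and, 72 hours later, viability was measured by CellTiter-Glo luminescence. Values are cell viability calculated from the luminescence signal.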
# [2] = tested on: Aspartate Aminotransferase (AST); experiment: Liver enzyme elevation in serum, AST; type: in vivo; conditions: cirRNA (SEQ ID NO: 1) LNPs, BALB/C mice, intravenous 0.5 MPK
# Procedure: (§2) 6-8 week old, female BALB/C mice were injected with 0.5 mg*kg-1 of RNA LNPs by intravenous injection. At 2 and 24 hours post injection, animals were bled and sera concentrations of Alanine Aminotransferase (ALT) and Aspartate Aminotransferase (AST) were determined by a blood chemistry analyzer.
# MCP-I = MCP-I cytokine elevation in serum; type: in vivo; conditions: cirRNA (SEQ ID NO: 1) LNPs, mice
# Procedure: 6-8 week old, female BALB/C mice were injected with 0.5 mg*kg-1 of RNA LNPs by intravenous injection. At 2 and 24 hours post injection, animals were bled and sera concentrations of MCP-I were determined by an immunoassay (Luminex).
# [3] = RNA encapsulation efficacy by Quant-IT Ribogreen kit; type: physicochemical; conditions: for Encapsulation Efficiency %: LNP with cirRNA (SEQ ID NO: 1); for Encapsulation Efficiency: LNP with mRNA (SEQ ID NO: 2)
# Method in brief: (§3)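 LNPs of ionizable lipid/DSPC/cholesterol/DMG-PEG 2000 (50:10:38.5:1.5) made by microfluidic mixing of luciferase circRNA or mRNA in pH 4.5 acetate with lipids in ethanol (3:1, 12 ml/min), ionizable lipid:nucleotide 15 or 6, then dialyzed against PBS. Size, PDI (DLS) and zeta potential on Zetasizer; encapsulation by Ribogreen ± Triton X-100.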
# [4] = LNP size and polydispersity index (PDI) by dynamic light scattering; type: physicochemical; conditions: for Size: in nm (unit assumed)
# Method in brief: as §3
# RAW 264.7 cells [5] = experiment: In vitro expression of firefly-luciferase, RAW 264.7; type: cell-based
# Method in brief: (§4)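 Cells were transfected with firefly-luciferase-encoding RNA-LNPs at 100 ng/mL. After 72 hours they were washed and lysed, and luciferase activity in the lysates was read by luminometry.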
# BALB/C mice [6] = experiment: Local tolerance determination by footpad injection; type: in vivo; conditions: cirRNA (SEQ ID NO: 1) LNP, 0.175 mg*kg-1 subcutaneous into the footpad, 24 hours post minus prior
# Procedure: 6-8 week old, female BALB/C mice were injected with 0.175 mg*kg-1 RNA LNPs by subcutaneous injection into the footpad. Prior to, and 24 hours post injections, injected footpad thickness was determined by a caliper.
# BALB/C mice [7] = experiment: In vivo expression, whole-body luminescence (IVIS)
# Procedure: 6-8 week old, female BALB/C mice were injected with 0.05 mg*kg-1 of RNA-LNPs encoding for firefly-luciferase by intravenous injection. At 6 hours post injection, animals were intraperitoneally injected with 15 mg/ml of Luciferin substrate and whole-body luminescence was determined by a bioluminescent in vivo imaging system (IVIS).
# [8] = tested on: Alanine Aminotransferase (ALT); experiment: Liver enzyme elevation in serum, ALT; type: in vivo; conditions: cirRNA (SEQ ID NO: 1) LNPs, BALB/C mice, intravenous 0.5 MPK
# Procedure: as §2
# RAW 264.7 cells [9] = experiment: In vitro toxicity (CellTiter-Glo cell viability), RAW 264.7; type: cell-based;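 further: percent of untreated cells luminescence signal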
# Method in brief: as §1
# [10] = LNP zeta potential (Zetasizer); type: physicochemical
# Method in brief: as §3
# Hep G2 cells [11] = experiment: In vitro expression of firefly-luciferase, Hep G2; type: cell-based
# Method in brief: as §4
# [12] = cirRNA (SEQ ID NO: 1) LNPs, Hep G2 cells
# [13] = mRNA (SEQ ID NO: 2) LNP, 1 μg/mL, 72 hours post transfection
# [14] = cirRNA (SEQ ID NO: 1) LNPs, firefly-luciferase luminescence, RAW 264.7 cells
# [15] = mRNA (SEQ ID NO: 2) LNP, 100 ng/mL, 72 hours post transfection, luciferase activity
# [16] = cirRNA (SEQ ID NO: 1) LNPs, BALB/C mice
# [17] = mRNA (SEQ ID NO: 2) LNP, 0.05 mg*kg-1 intravenous, 6 hours post injection
# [18] = cirRNA (SEQ ID NO: 1) LNPs, RAW 264.7 cells
# [19] = cirRNA (SEQ ID NO: 1) LNPs, firefly-luciferase luminescence, Hep G2 cells
SMILES,MCP-I in Sera 2 hours After 0.5 MPK Injection (MCP-I) [pg/mL],MCP-I in Sera 24 hours After 0.5 MPK Injection (MCP-I) [pg/mL],Encapsulation Efficiency % [3] [%],Encapsulation Efficiency [3] [%],PDI ([4]; LNP with cirRNA (SEQ ID NO: 1)),Size ([4]; LNP with cirRNA (SEQ ID NO: 1)),PDI ([4]; LNP with mRNA (SEQ ID NO: 2)),Size ([4]; LNP with mRNA (SEQ ID NO: 2)),In vitro Viability HepG2 (Hep G2 cells [1]; [12]) [%],In vitro Viability HepG2 (Hep G2 cells [1]; [13]) [%],AST in Sera (IU/L) 2 hours After 0.5 MPK Injection [2] [IU/L],AST in Sera (IU/L) 24 hours After 0.5 MPK Injection [2] [IU/L],In vitro Expression RAW (RAW 264.7 cells [5]; [14]),In vitro Expression RAW (RAW 264.7 cells [5]; [15]),"Footpad Thickness (24 h−0 h, mm) (BALB/C mice [6]) [mm]",In vivo Expression (Whole Body) (BALB/C mice [7]; [16]),In vivo Expression (Whole Body) (BALB/C mice [7]; [17]),ALT in Sera (IU/L) 2 hours After 0.5 MPK Injection [8] [IU/L],ALT in Sera (IU/L) 24 hours After 0.5 MPK Injection [8] [IU/L],In vitro Viability RAW (RAW 264.7 cells [9]; [18]) [%],further results
CCCCCCCCC(CCCCCCCC)OC(=O)CCCCCCCN(CCCCCCCCOC(=O)C(CCCCCC)CCCCCCCC)CCCOC(=O)NCCN1CCCC1 (centres unmarked) [Lipid 350],6084.33,2039.50,97,83.19,0.1717,112.8,0.1151,105.3,95,111,368.00,362.67,3.38E+06,5.78E+06,0.55,1.03E+08,5.29E+08,105.67,121.33,74,In vitro Viability RAW (RAW 264.7 cells [9]; [13]): 86%; Zeta (mV) ([10]; LNP with cirRNA (SEQ ID NO: 1)): 6.91 mV; Zeta (mV) ([10]; LNP with mRNA (SEQ ID NO: 2)): 0.9211 mV; In vitro Expression HepG2 (Hep G2 cells [11]; [19]): 1.43E+07; In vitro Expression HepG2 (Hep G2 cells [11]; [15]): 4.34E+07
CCCCC/C=C\C/C=C\CCCCCCCCN(CCCCCCCC(=O)OC(CCCCCCCC)CCCCCCCC)CCCOC(=O)NCCN1CCCCC1 [Lipid 278],1815.67,1070.74,96,86.19,0.1471,91.92,0.1831,119,91,100,275.33,322.67,8.67E+06,6.01E+06,0.63,1.19E+08,2.18E+08,177.33,102.50,132,In vitro Viability RAW (RAW 264.7 cells [9]; [13]): 83%; Zeta (mV) ([10]; LNP with cirRNA (SEQ ID NO: 1)): 0.06032 mV; Zeta (mV) ([10]; LNP with mRNA (SEQ ID NO: 2)): 0.3567 mV; In vitro Expression HepG2 (Hep G2 cells [11]; [19]): 2.22E+07; In vitro Expression HepG2 (Hep G2 cells [11]; [15]): 3.75E+07
CCCCCCCCC(CCCCCCCC)OC(=O)CCCCCCCN(CCCCCCCCOC(=O)C(CCCCCC)CCCCCCCC)CCCOC(=O)NCCN1CCCCCC1 (centres unmarked) [Lipid 354],5469.33,1348.89,96,71.30,0.1505,98.03,0.2144,128.6,119,104,287.33,411.00,4.53E+05,1.10E+06,0.80,6.08E+08,7.55E+08,97.67,192.50,45,In vitro Viability RAW (RAW 264.7 cells [9]; [13]): 65%; Zeta (mV) ([10]; LNP with cirRNA (SEQ ID NO: 1)): −2.263 mV; Zeta (mV) ([10]; LNP with mRNA (SEQ ID NO: 2)): −0.3781 mV; In vitro Expression HepG2 (Hep G2 cells [11]; [19]): 1.63E+06; In vitro Expression HepG2 (Hep G2 cells [11]; [15]): 7.47E+06

# Second part, led by results:
MCP-I in Sera 2 hours After 0.5 MPK Injection (MCP-I) [pg/mL],MCP-I in Sera 24 hours After 0.5 MPK Injection (MCP-I) [pg/mL],Encapsulation Efficiency % [3] [%],Encapsulation Efficiency [3] [%],PDI ([4]; LNP with cirRNA (SEQ ID NO: 1)),Size ([4]; LNP with cirRNA (SEQ ID NO: 1)),PDI ([4]; LNP with mRNA (SEQ ID NO: 2)),Size ([4]; LNP with mRNA (SEQ ID NO: 2)),SMILES,In vitro Viability HepG2 (Hep G2 cells [1]; [12]) [%],In vitro Viability HepG2 (Hep G2 cells [1]; [13]) [%],AST in Sera (IU/L) 2 hours After 0.5 MPK Injection [2] [IU/L],AST in Sera (IU/L) 24 hours After 0.5 MPK Injection [2] [IU/L],In vitro Expression RAW (RAW 264.7 cells [5]; [14]),In vitro Expression RAW (RAW 264.7 cells [5]; [15]),"Footpad Thickness (24 h−0 h, mm) (BALB/C mice [6]) [mm]",In vivo Expression (Whole Body) (BALB/C mice [7]; [16]),In vivo Expression (Whole Body) (BALB/C mice [7]; [17]),ALT in Sera (IU/L) 2 hours After 0.5 MPK Injection [8] [IU/L],ALT in Sera (IU/L) 24 hours After 0.5 MPK Injection [8] [IU/L],In vitro Viability RAW (RAW 264.7 cells [9]; [18]) [%],further results
6463.00,1338.00,97,92.99,0.1084,93.14,0.1166,120.9,CCCCCCCCCCC(CCCCCCCC)COC(=O)CCCCCN(CCCCCC(=O)OCC(CCCCCCCC)CCCCCCCCCC)CCCOC(=O)NCCN1CCCC1 (centres unmarked) [Lipid 369],78,94,364.00,290.00,1.84E+05,2.18E+07,0.57,1.30E+07,6.54E+08,158.00,121.00,61,In vitro Viability RAW (RAW 264.7 cells [9]; [13]): 90%; Zeta (mV) ([10]; LNP with cirRNA (SEQ ID NO: 1)): 4.427 mV; Zeta (mV) ([10]; LNP with mRNA (SEQ ID NO: 2)): 10 mV; In vitro Expression HepG2 (Hep G2 cells [11]; [19]): 1.04E+06; In vitro Expression HepG2 (Hep G2 cells [11]; [15]): 7.28E+07
3843.00,1289.00,96,85.44,0.1683,105.2,0.06656,88.86,CCCCCCCCC(CCCCCC)C(=O)OCCCCCCCCN(CCCCCCCCOC(=O)C(CCCCCC)CCCCCCCC)CCCOC(=O)NCCN(C)C (centres unmarked) [Lipid 374],70,57,435.67,431.67,2.34E+06,5.38E+05,0.63,1.53E+08,4.07E+09,136.67,152.67,84,In vitro Viability RAW (RAW 264.7 cells [9]; [13]): 84%; Zeta (mV) ([10]; LNP with cirRNA (SEQ ID NO: 1)): 3.631 mV; Zeta (mV) ([10]; LNP with mRNA (SEQ ID NO: 2)): 3.895 mV; In vitro Expression HepG2 (Hep G2 cells [11]; [19]): 1.89E+07; In vitro Expression HepG2 (Hep G2 cells [11]; [15]): 3.70E+07
